Results from PMC8623851, “The Structural Determinants for α1-Adrenergic/Serotonin Receptors Activity among Phenylpiperazine-Hydantoin Derivatives” (Molecules, 2021).
Like-named read-outs stand apart in the source and are kept apart here.

How the values were obtained:
behavioral models = test system: behavioral models; set-up: method as in PMID 31330215; conditions: cited from earlier work
α1AR = target: α1AR; set-up: method as in PMID 31330215; conditions: cited from earlier work
α1BR = target: α1BR; set-up: method as in PMID 31330215; conditions: cited from earlier work
5-HT2AR = target: 5-HT2AR; set-up: method as in PMID 31330215; conditions: cited from earlier work
α1DR = target: α1DR; set-up: method as in PMID 31330215; conditions: cited from earlier work
5-HT1AR = target: 5-HT1AR; set-up: method as in PMID 31330215; conditions: cited from earlier work
α1-receptor [1] = target: α1-receptor; set-up: method as in PMID 31383628, PMID 29425815; conditions: previously reported arylpiperazine hydantoin derivatives; cited from earlier work
human 5-HT6 receptor = human 5-HT6 receptor (Homo sapiens, UniProt P50406); experiment: Radioligand binding assay 5-HT6 (HEK-293 membranes, [3H]-LSD)
Sequence of human 5-HT6 receptor (P50406 whole entry): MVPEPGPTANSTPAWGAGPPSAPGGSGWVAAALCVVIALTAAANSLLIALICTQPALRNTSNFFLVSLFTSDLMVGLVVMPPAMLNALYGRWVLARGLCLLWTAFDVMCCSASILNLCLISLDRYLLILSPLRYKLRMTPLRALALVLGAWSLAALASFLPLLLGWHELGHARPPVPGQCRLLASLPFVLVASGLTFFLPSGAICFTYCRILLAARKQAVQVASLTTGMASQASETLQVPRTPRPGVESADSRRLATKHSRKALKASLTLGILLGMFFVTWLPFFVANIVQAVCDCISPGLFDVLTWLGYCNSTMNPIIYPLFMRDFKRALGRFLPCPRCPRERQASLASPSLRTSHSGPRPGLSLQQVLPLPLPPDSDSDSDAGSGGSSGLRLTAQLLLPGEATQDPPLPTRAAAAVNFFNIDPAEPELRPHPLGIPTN

human 5-HT1A receptor = target: T1, human 5-HT1A receptor (Homo sapiens, UniProt P08908); experiment: Radioligand binding assay 5-HT1A (HEK-293 membranes, [3H]-8-OH-DPAT)
T1 sequence (P08908 1-422): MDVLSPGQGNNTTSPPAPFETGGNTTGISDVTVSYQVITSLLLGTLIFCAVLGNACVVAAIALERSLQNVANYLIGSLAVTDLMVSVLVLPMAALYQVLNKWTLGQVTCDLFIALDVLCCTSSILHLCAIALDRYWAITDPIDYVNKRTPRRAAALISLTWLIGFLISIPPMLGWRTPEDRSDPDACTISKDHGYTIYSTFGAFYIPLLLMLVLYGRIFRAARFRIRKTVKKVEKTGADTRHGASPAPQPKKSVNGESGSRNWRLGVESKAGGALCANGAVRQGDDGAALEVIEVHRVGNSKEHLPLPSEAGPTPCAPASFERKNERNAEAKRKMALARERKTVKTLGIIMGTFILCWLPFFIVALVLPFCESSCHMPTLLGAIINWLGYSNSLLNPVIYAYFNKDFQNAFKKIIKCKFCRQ

α1-receptor [2] = experiment: Radioligand binding assay: affinity for α1-receptor ([3H]Prazosin, rat cortex)
Protocol: Tissue (rat cortex) was homogenized in 20 volumes of ice-cold 50 mM Tris-HCl buffer, pH 7.6, using an Ultra Turrax T25B homogenizer (IKA, Staufen, Germany). The homogenate was centrifuged at 20,000× g for 20 min. The resulting supernatant was decanted and pellet was resuspended in the same buffer and centrifuged again in the same conditions. The final pellet was resuspended in an appropriate volume of buffer (10 mg/1 mL).
The concentrations of analyzed compounds ranged from 10^−10 to 10^−5 M.
The incubation was terminated by rapid filtration over glass fiber filters FilterMate B (PerkinElmer, Waltham, MA, USA) using a 96-well FilterMate harvester (PerkinElmer, Waltham, MA, USA). Five rapid washes were performed with ice-cold 50 mM Tris-HCl buffer, pH 7.6.
The FilterMate was dried in a microwave and placed in a plastic bag (PerkinElmer, Waltham, MA, USA) and soaked in 10 mL of a liquid scintillation cocktail Ultima Gold MV (PerkinElmer, Waltham, MA, USA). After even distribution of the scintillation cocktail, the filter bag was sealed.
The radioactivity on the filter was measured by a MicroBeta TriLux 1450 scintillation counter (PerkinElmer, Waltham, MA, USA).
Radioligand binding data were analyzed using iterative curve fitting routines GraphPad Prism 3.0 (GraphPad Software, San Diego, CA, USA) using the built-in three parameter logistic model describing ligand competition binding to radioligand-labeled sites.

human 5-HT7b receptor = human 5-HT7b receptor (Homo sapiens, UniProt P34969); experiment: Radioligand binding assay 5-HT7 (HEK-293 membranes, [3H]-5-CT)
Sequence of human 5-HT7b receptor (P34969 1-432): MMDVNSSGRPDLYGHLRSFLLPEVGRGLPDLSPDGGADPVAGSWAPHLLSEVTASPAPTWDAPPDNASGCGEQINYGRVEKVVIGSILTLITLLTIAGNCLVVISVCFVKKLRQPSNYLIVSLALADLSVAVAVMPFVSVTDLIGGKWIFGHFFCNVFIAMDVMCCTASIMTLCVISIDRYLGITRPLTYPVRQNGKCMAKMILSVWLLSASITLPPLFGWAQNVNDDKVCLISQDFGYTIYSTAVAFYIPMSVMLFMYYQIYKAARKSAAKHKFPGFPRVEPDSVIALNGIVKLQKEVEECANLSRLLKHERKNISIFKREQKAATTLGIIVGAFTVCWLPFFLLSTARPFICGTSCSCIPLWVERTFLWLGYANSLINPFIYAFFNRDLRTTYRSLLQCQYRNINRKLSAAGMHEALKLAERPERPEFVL

α1A-AR = target: T2, α1A-AR (Homo sapiens, UniProt P35348); experiment: Intrinsic (functional) activity for α1A-AR; type: cell-based; conditions: antagonist potency; α1A-AR in rat tail artery (table title); 4–7 experimental results; read-out: IC50 ± SEM α1A-AR
T2 sequence (P35348 1-466): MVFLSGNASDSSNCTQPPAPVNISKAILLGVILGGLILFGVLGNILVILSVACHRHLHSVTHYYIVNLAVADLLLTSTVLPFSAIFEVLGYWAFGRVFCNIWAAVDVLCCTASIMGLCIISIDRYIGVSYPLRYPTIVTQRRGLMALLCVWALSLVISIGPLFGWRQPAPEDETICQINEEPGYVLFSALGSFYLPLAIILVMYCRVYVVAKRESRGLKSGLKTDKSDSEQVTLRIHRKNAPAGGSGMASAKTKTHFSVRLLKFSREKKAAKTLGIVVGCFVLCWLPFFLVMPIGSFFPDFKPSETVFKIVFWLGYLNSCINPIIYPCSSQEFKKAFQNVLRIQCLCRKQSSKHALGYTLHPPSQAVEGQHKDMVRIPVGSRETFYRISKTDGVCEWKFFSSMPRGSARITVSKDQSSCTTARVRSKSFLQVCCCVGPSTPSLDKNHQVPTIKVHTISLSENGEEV
Protocol: An intrinsic activity assay was performed according to the manufacturer of the assay kit (Invitrogen, Thermo Fisher Scientific). […] Of the cell suspension, 32 µL per well was added to the Test Compound wells, the Unstimulated Control wells, and Stimulated Control wells and were incubated per 16–24 h. […] Then, both the agonist and the antagonist plate were incubated in a humidified 37 °C/5% CO2 incubator for 5 h. Then, cells were loaded with 8 µL of LiveBLAzer™-FRET B/G Substrate Mixture (CCF4-AM, Thermo Fisher Scientific) and incubated at room temperature for 2 h.

α1B-AR = target: T3, α1B-AR (Homo sapiens, UniProt P35368); experiment: Intrinsic (functional) activity for α1B-AR (Aequoscreen); type: cell-based; conditions: antagonist potency; α1B-AR in mouse spleen (table title); 4–7 experimental results; read-out: IC50 ± SEM α1B-AR
T3 construct: expressed in transfected cells; host or cells: recombinant Aequoscreen cell line (frozen, ready to use)
T3 sequence (P35368 1-520): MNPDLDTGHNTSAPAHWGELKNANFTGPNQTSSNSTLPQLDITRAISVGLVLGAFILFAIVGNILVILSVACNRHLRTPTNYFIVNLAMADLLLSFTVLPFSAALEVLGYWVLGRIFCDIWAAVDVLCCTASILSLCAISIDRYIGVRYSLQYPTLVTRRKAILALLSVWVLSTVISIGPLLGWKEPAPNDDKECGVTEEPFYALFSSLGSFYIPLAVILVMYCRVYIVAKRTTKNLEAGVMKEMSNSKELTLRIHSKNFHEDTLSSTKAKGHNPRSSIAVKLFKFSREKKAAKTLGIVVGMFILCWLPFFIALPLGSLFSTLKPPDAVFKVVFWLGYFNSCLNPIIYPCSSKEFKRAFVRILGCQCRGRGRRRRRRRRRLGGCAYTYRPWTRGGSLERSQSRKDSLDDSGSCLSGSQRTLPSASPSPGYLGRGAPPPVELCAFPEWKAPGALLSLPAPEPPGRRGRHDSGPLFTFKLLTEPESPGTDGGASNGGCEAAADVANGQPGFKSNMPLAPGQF
Protocol: The Aequoscreen technology uses the recombinant cell lines with stable expression of the α1B or α1D adrenoreceptor and co-expression of apoaequorin and a GPCR as a system to detect the activation of the receptor, following the addition of an agonist, via the measurement of light emission. For measurement, cells (frozen, ready to use) were thawed and resuspended in 10-mL of assay buffer containing 5 μM coelenterazine h. This cell suspension was put in a 10-mL Falcon tube, fixed onto a rotating wheel and incubated overnight at RT° in the dark. Cells were diluted with Assay Buffer to 5000 cells/20 µL. In the first part, agonistic activity was tested. Potential agonists (standard and tested) 2× (50 μL/well), diluted in Assay Buffer, were prepared in 1/2 white polystryrene area plates, and the cell suspension was dispensed in 50 μL volume on the ligands using the injector. The light emitted was recorded for 20 s. In the second part, the agonistic activity was tested. Cells with tested compounds were incubated for 15 min at room temperature.

SMILES | Ki (human 5-HT6 receptor) | Ki (human 5-HT1A receptor) | Ki (α1-receptor [2]) | Ki (human 5-HT7b receptor) | melting point | also measured
COc1ccccc1N1CCN(CCn2cnc3ccccc3c2=O)CC1 [ACH-000029] | – | – | – | – | – | anxiolytic activity (behavioral models): anxiolytic activity in behavioral models; Ki (α1AR): 0.07 nM; Ki (α1BR): 4.6 nM; Ki (5-HT2AR): 500 nM; Ki (α1DR): 1.1 nM; Ki (5-HT1AR): 14 nM
COc1ccc(/C=C2\NC(=O)N(CC(O)CN3CCN(c4ccccc4OC)CC3)C2=O)cc1OC (centres unmarked) [Compound 1] | – | – | – | – | – | Ki (α1-receptor [1]): 44.5 nM
COc1ccccc1N1CCN(CC(O)CN2C(=O)NC(C)(c3ccc(F)cc3)C2=O)CC1 (centres unmarked) [Compound 2] | – | – | – | – | – | Ki (α1-receptor [1]): 230 nM
COc1cccc(/C=C2\NC(=O)N(CC(O)CN3CCN(c4ccccc4OC)CC3)C2=O)c1 (centres unmarked) [Compound 4, (Z)-3-(2-hydroxy-3-(4-(2-methoxyphenyl)piperazin-1-yl)propyl)-5-(3-methoxybenzylidene)imidazolidine-2,4-dione] | 17600 nM | 530 nM | 187 ± 18.6 nM | 283 nM | – | –
CCOc1ccccc1N1CCN(CC(O)CN2C(=O)N/C(=C\c3cccc(OC)c3)C2=O)CC1 (centres unmarked) [Compound 5, (Z)-3-(3-(4-(2-ethoxyphenyl)piperazin-1-yl)-2-hydroxypropyl)-5-(3-methoxybenzylidene)imidazolidine-2,4-dione] | 19200 nM | 557 nM | 75.9 ± 2.3 nM | 79 nM | – | –
COc1ccc(/C=C2\NC(=O)N(CC(O)CN3CCN(c4ccccc4OC)CC3)C2=O)cc1 (centres unmarked) [Compound 6, (Z)-3-(2-hydroxy-3-(4-(2-methoxyphenyl)piperazin-1-yl)propyl)-5-(4-methoxybenzylidene)imidazolidine-2,4-dione] | 20400 nM | 282 nM | 145 ± 13.3 nM | 197 nM | 176 to 178 °C | –
CCOc1ccccc1N1CCN(CC(O)CN2C(=O)N/C(=C\c3ccc(OC)cc3)C2=O)CC1 (centres unmarked) [Compound 7, (Z)-3-(3-(4-(2-ethoxyphenyl)piperazin-1-yl)-2-hydroxypropyl)-5-(4-methoxybenzylidene)imidazolidine-2,4-dione] | 10200 nM | 313 nM | 99.1 ± 11.3 nM | 120 nM | – | –
COc1ccc(/C=C2\NC(=O)N(CC(O)CN3CCN(c4ccccc4F)CC3)C2=O)cc1 (centres unmarked) [Compound 8, (Z)-3-(3-(4-(2-fluorophenyl)piperazin-1-yl)-2-hydroxypropyl)-5-(4-methoxybenzylidene)imidazolidine-2,4-dione] | 11700 nM | 3530 nM | 144 ± 7.9 nM | 1040 nM | 104 to 106 °C | –
CCOc1ccccc1N1CCN(CC(O)CN2C(=O)N/C(=C\c3cc(OC)c(OC)c(OC)c3)C2=O)CC1 (centres unmarked) [Compound 9, (Z)-3-(3-(4-(2-ethoxyphenyl)piperazin-1-yl)-2-hydroxypropyl)-5-(3,4,5-trimethoxybenzylidene)imidazolidine-2,4-dione] | 2830 nM | 1870 nM | 89.5 ± 9 nM | 1250 nM | 104 to 106 °C | –
CCOc1ccccc1N1CCN(CCCN2C(=O)N/C(=C\c3cccc(OC)c3)C2=O)CC1 [Compound 10, (Z)-3-(3-(4-(2-ethoxyphenyl)piperazin-1-yl)propyl)-5-(3-methoxybenzylidene)imidazolidine-2,4-dione] | – | 103 nM | 20.2 ± 4.1 nM | – | – | IC50 (α1A-AR): 7.2 ± 1.1 nM; IC50 (α1B-AR): 9.2 ± 1.3 nM
COc1cccc(/C=C2\NC(=O)N(CCCN3CCN(c4ccccc4Cl)CC3)C2=O)c1 [Compound 11, (Z)-3-(3-(4-(2-chlorophenyl)piperazin-1-yl)propyl)-5-(3-methoxybenzylidene)imidazolidine-2,4-dione] | 1720 nM | 319 nM | 44.8 ± 3.3 nM | 152 nM | 144 to 146 °C | –
COc1ccc(/C=C2\NC(=O)N(CCCN3CCN(c4ccccc4OC)CC3)C2=O)cc1 [Compound 12, (Z)-5-(4-methoxybenzylidene)-3-(3-(4-(2-methoxyphenyl)piperazin-1-yl)propyl)imidazolidine-2,4-dione] | 22000 nM | 20.6 nM | 34.6 ± 4.6 nM | 101 nM | – | IC50 (α1A-AR): 12.8 ± 2.5 nM; IC50 (α1B-AR): 8.5 ± 1.1 nM
CCOc1ccccc1N1CCN(CCCN2C(=O)N/C(=C\c3ccc(OC)cc3)C2=O)CC1 [Compound 13, (Z)-3-(3-(4-(2-ethoxyphenyl)piperazin-1-yl)propyl)-5-(4-methoxybenzylidene)imidazolidine-2,4-dione] | > 50000 nM | 45.8 nM | 19.5 ± 2.6 nM | 114 nM | 180 to 183 °C | –
COc1ccc(/C=C2\NC(=O)N(CCCN3CCN(c4ccccc4OC)CC3)C2=O)cc1OC [Compound 14] | 15800 nM | 128 nM | 11.9 ± 2.2 nM | 189 nM | – | IC50 (α1A-AR): 57.6 ± 7.2 nM; IC50 (α1B-AR): 182 ± 21.4 nM
COc1ccccc1N1CCN(CCCN2C(=O)N/C(=C\c3cc(OC)c(OC)c(OC)c3)C2=O)CC1 [Compound 15, (Z)-3-(3-(4-(2-methoxyphenyl)piperazin-1-yl)propyl)-5-(3,4,5-trimethoxybenzylidene)imidazolidine-2,4-dione] | 12300 nM | 172 nM | 25.8 ± 2.9 nM | 668 nM | 130 to 132 °C | –
CCOc1ccccc1N1CCN(CCCN2C(=O)N/C(=C\c3cc(OC)c(OC)c(OC)c3)C2=O)CC1 [Compound 16, (Z)-3-(3-(4-(2-ethoxyphenyl)piperazin-1-yl)propyl)-5-(3,4,5-trimethoxybenzylidene)imidazolidine-2,4-dione] | 15200 nM | 165 nM | 14.7 ± 1.1 nM | 138 nM | – | IC50 (α1A-AR): 19.1 ± 3.4 nM; IC50 (α1B-AR): 0.82 ± 0.1 nM
CCOc1ccccc1OCCN[C@H](C)Cc1ccc(OC)c(S(N)(=O)=O)c1 [Tamsulosin, reference compound] | – | – | – | – | – | IC50 (α1B-AR): 0.13 ± 0.02 nM
Cc1ccc(N(CC2=NCCN2)c2cccc(O)c2)cc1 [fentolamine, reference compound] | – | – | 15.7 ± 1.5 nM | – | – | –
